Laboratory results from patent US9943554B2, “Compositions and methods relating to solenopsins and their uses in treating neurological disorders and enhancing physical performance” (priority 2006, dated 2018).
In brackets after ≈: the same amount, converted by molar mass. Read-outs that look alike come from different tables or passages of the source.

How the values were obtained:
[1] = PK profile in plasma and brain of APP transgenic animals; assay type: in vivo, APP transgenic mice; conditions: orally 10 mg/kg
Protocol: For PK profile, the APP transgenic animals were administered SPI-001, and blood samples and brain tissue were collected and subjected to drug analysis.

Aβ peptide = Aβ peptide levels in the brain after repetitive administration for 3 months; assay type: in vivo; conditions: APP transgenic mice; 10 mg/kg orally daily for 3 months; compared to control animals
Description: (§1) The APP mice (male) used in these experiments were designed by microinjection of the human APP gene (with the Swedish and London mutations) into mouse eggs under the control of the platelet-derived growth factor B (PDGF-B) chain gene promoter. The mice were generated on a C57BL/6 background. Animals were housed in the Medical University of South Carolina Animal Facility under a 12:12 light:dark cycle. Animals were housed in standard non-sterile rodent microisolator cages, with filtered cage tops and housed 4 to a cage. Animals were fed ad libitum and maintained by brother sister mating. Transgenic animals were identified by PCR analysis. The mice generated from this construct develop amyloid deposits starting at 3 months of age. Animals were aged for 3 months and then maintained for 90 days and sacrificed for amyloid quantification.
(§2) SPI-001 was administered to APP transgenic mice at 10 mg/kg for 3 months to determine the effect upon Aβ peptide and amyloid load. Animals were administered SPI-001 orally in 25% PEG daily and examined for abnormal pathology. […] Animals were analyzed for behavioral changes associated with drug treatment (FIG. 7). […] FIG. 8 illustrates the plaque load in the brains of control and SPI-001 treated animals.

Solubility of SPI-001 = assay type: physicochemical; conditions: for solubility: organic solvent or mixture
Protocol: Based on chemical synthesis of SPI-001 and mass spec analysis, the compound has a molecular weight of <500. It is not a protein or peptide, but is a small molecule. SPI-001 is soluble in dimethyl sulfoxide (DMSO) and ethanol to 100 mg/ml. […] SPI-001 can be resuspended in 25% polyethylene glycol (PEG) 400 for oral delivery.

[2] = molecular target: T1, monoamine (5-HT) transporters (Homo sapiens, UniProt P31645); assay: CEREP screen: 5-HT transporter; assay type: binding; design: dose or concentration left out as unconfirmed
T1 construct: CEREP
Protocol: (§3) Recent CEREP screen indicated for SPI-001 ([…]) that it inhibited muscarinic receptors (M1, M2 and M3), Na+ channels and monoamine (NE, DA, and 5-HT) transporters with high affinity (˜90%).

Pl3 kinase = assay: Initial studies: Pl3 kinase; assay type: biochemical
APP transgenic mice [3] = assay: Morris water maze test in APP mice treated for 90 days; assay type: in vivo; conditions: 10 mg/kg orally in 25% PEG daily for 3 months (90 days)
Protocol: Morris water-maze testing. All mice were tested once in the Morris water maze test at the end of the experiment. Mice were trained in a 1.2 m open field water maze. The pool was filled to a depth of 30 cm with water and maintained at 25° C. The escape platform (10 cm square) was placed 1 cm below the surface of the water. During the trials, the platform was removed from the pool. The cued test was carried out in the pool surrounded with white curtains to hide any extra-maze cues. All animals underwent non-spatial pretraining (NSP) for three consecutive days. These trials were to prepare the animals for the final behavioral test to determine the retention of memory to find the platform. These trials were not recorded (for training purposes only). For the training and learning studies, the curtains were removed to add extra-maze cues (this allows for the identification of animals with swimming impairments). On day 1, the mice were placed on the hidden platform for 20 seconds (trial 1), for trials 2-3 animals were released in the water at a distance of 10 cm from the cued-platform or hidden platform (trial 4) and allowed to swim to the platform. […]
SPI-001 was administered to APP transgenic mice at 10 mg/kg for 3 months to determine the effect upon Aβ peptide and amyloid load. […] Animals were analyzed for behavioral changes associated with drug treatment (FIG. 7). […]

Aβ1-42 peptide [4] = assay: Brain and plasma Aβ1-42 peptide levels in APP transgenic mice after single oral administration; assay type: in vivo
Description: as §1
(§4) FIG. 2 illustrates the effect of SPI-001 on brain Aβ1-42 peptide levels when administered at 10 mg/kg orally to the APP transgenic mice. Animals were dosed once with SPI-001 and then examined at 0, 4, 24 hours and 7 days for A[…] peptide levels (Biosource International). […] The plasma levels were opposite to the brain levels.
(§5) Animals were dosed once with SPI-001 and then examined at 0, 4, 24, 48 hours and 7 days for A[…] peptide levels. […] The plasma levels were opposite to the brain levels.

C57BL/6 mice = assay: Selectivity and safety profile in C57BL/6 mice; assay type: in vivo
Protocol: Animals (C57BL/6 mice, 5 mice per group) were treated with SPI-001 at 0, 4, 40, and 400 mg/kg in 25% PEG 400 with a single dose and examined 14 days later.

Aβ1-42 peptide [5] = assay: Acute administration for 7 days: brain and plasma Aβ1-42 peptide levels; assay type: in vivo, APP transgenic mice; conditions: 10 mg/kg for 7 days in 25% PEG 400, at 7 days
Protocol: Animals were dosed once with SPI-001 and then examined at 7 days for AP peptide levels.

[6] = molecular target: T2, muscarinic receptors (M2) (Homo sapiens, UniProt P08172); assay: CEREP screen: muscarinic receptor M2; assay type: binding; design: dose or concentration left out as unconfirmed
T2 construct: CEREP
T2 sequence (P08172 1-466): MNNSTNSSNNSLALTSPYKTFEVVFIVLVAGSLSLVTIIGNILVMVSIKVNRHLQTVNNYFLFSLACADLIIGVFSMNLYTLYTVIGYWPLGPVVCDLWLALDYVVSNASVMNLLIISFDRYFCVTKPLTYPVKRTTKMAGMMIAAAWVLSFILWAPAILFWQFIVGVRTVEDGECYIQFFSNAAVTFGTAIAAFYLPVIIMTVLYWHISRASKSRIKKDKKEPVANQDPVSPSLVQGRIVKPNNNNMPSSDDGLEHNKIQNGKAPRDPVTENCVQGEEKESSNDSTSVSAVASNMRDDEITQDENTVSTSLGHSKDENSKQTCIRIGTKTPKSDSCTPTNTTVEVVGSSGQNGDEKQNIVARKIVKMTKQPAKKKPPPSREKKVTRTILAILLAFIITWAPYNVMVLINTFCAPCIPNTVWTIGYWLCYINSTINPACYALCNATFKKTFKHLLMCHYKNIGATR
Protocol: as §3

Aβ1-40 peptide [7] = assay: Brain and plasma Aβ1-40 peptide levels in APP transgenic mice after single oral administration; assay type: in vivo; conditions: single 10 mg/kg oral, compared with Aβ1-42
Description: as §1, §4, §5

[8] = molecular target: T3, monoamine (NE) transporters (Homo sapiens, UniProt P23975); assay: CEREP screen: NE transporter; assay type: binding; design: dose or concentration left out as unconfirmed
T3 construct: CEREP
Protocol: as §3

MSK1 = MSK1 (Homo sapiens, UniProt O75582); assay: Initial studies: MSK1; assay type: biochemical
[9] = molecular target: T4, muscarinic receptors (M1) (Homo sapiens, UniProt P11229); assay: CEREP screen: muscarinic receptor M1; assay type: binding; design: dose or concentration left out as unconfirmed
T4 construct: CEREP
T4 sequence (P11229 1-460): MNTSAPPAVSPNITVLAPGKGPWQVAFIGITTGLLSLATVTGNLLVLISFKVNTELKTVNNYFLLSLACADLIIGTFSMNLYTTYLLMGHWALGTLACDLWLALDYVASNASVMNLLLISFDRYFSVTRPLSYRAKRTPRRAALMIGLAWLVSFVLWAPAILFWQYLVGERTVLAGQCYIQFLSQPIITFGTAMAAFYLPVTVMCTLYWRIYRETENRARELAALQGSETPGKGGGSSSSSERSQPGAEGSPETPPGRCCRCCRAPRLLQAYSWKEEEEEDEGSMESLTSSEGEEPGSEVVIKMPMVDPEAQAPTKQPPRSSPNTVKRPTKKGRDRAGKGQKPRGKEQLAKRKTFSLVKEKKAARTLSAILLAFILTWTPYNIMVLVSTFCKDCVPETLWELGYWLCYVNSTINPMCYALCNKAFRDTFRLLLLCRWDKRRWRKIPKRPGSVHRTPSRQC
Protocol: as §3

[10] = molecular target: T5, muscarinic receptors (M3) (Homo sapiens, UniProt P20309); assay: CEREP screen: muscarinic receptor M3; assay type: binding; design: dose or concentration left out as unconfirmed
T5 construct: CEREP
Protocol: as §3

Aβ1-42 peptide [11] = assay: Brain and plasma Aβ1-42 peptide levels in guinea pigs after single oral administration; assay type: in vivo; conditions: Guinea Pig, single 10 mg/kg oral
Protocol: (§6) Animals were dosed once with SPI-001 and then examined at 0, 4, 24, 48 hours and 7 days for AP peptide levels.

CamK1δ = CamK1δ (Homo sapiens, UniProt Q8IU85); assay: Initial studies: CamK1δ; assay type: biochemical
APP transgenic mice [12] = assay: Examination for abnormal pathology after repetitive administration for 3 months; assay type: in vivo; conditions: 10 mg/kg orally daily for 3 months
Protocol: as §2

MAPKAPK2 pathways = assay: Initial studies: MAPKAPK2 pathways; assay type: biochemical
Aβ1-40 peptide [13] = assay: Brain and plasma Aβ1-40 peptide levels in guinea pigs after single oral administration; assay type: in vivo; conditions: Guinea Pig; single 10 mg/kg oral; compared with Aβ1-42
Protocol: as §6

amyloid load = assay: Amyloid (plaque) load in the brain after repetitive administration for 3 months; assay type: in vivo; conditions: APP transgenic mice; 10 mg/kg orally daily for 3 months; compared to control animals
Description: as §1, §2

[14] = molecular target: T6, monoamine (DA) transporters (Homo sapiens, UniProt Q01959); assay: CEREP screen: DA transporter; assay type: binding; design: dose or concentration left out as unconfirmed
T6 construct: CEREP
Protocol: as §3

Na+ channels = assay: CEREP screen: Na+ channels; assay type: binding; conditions: SPI-001 10 mM
Protocol: as §3

[15] = 400 mg/kg in 25% PEG 400 for 14 days
[16] = C57BL/6 mice, single dose 4, 40 and 400 mg/kg in 25% PEG 400, examined 14 days later

Sequence of MSK1 (O75582 whole entry, species assumed): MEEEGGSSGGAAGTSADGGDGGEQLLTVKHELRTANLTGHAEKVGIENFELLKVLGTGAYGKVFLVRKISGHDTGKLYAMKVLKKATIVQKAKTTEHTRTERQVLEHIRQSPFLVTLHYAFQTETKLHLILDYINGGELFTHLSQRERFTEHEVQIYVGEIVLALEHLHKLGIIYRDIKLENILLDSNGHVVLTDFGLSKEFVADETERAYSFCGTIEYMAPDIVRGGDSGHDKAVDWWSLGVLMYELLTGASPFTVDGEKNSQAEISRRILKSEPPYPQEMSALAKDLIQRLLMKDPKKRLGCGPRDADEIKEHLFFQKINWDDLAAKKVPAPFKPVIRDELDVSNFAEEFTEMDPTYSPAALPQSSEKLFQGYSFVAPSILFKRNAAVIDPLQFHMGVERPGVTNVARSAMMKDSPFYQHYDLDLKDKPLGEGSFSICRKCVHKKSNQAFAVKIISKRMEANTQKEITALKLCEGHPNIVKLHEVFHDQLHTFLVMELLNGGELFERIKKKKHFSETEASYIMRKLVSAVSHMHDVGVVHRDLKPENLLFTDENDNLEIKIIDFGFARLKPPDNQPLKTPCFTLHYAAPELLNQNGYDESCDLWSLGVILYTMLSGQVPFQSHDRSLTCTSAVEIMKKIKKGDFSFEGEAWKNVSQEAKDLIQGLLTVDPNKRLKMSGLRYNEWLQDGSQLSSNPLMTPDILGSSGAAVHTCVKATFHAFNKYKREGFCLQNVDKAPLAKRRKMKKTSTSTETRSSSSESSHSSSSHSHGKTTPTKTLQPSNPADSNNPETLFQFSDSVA
T1 sequence (P31645 whole entry): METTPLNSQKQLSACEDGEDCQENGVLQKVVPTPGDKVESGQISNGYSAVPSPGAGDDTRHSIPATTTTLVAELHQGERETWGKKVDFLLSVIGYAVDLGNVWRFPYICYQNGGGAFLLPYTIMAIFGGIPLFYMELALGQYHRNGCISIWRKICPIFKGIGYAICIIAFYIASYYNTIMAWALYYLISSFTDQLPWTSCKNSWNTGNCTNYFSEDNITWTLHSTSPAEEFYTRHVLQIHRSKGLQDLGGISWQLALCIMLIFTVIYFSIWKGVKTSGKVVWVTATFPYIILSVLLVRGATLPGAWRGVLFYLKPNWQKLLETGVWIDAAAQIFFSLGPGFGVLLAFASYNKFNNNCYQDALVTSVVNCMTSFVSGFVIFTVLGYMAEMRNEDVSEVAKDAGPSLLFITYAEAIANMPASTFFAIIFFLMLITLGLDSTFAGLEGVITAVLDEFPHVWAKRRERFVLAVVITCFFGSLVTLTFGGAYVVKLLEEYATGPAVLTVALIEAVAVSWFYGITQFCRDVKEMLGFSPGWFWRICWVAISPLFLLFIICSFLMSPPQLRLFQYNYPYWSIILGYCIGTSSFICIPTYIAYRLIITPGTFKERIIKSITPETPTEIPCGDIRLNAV
T5 sequence (P20309 whole entry): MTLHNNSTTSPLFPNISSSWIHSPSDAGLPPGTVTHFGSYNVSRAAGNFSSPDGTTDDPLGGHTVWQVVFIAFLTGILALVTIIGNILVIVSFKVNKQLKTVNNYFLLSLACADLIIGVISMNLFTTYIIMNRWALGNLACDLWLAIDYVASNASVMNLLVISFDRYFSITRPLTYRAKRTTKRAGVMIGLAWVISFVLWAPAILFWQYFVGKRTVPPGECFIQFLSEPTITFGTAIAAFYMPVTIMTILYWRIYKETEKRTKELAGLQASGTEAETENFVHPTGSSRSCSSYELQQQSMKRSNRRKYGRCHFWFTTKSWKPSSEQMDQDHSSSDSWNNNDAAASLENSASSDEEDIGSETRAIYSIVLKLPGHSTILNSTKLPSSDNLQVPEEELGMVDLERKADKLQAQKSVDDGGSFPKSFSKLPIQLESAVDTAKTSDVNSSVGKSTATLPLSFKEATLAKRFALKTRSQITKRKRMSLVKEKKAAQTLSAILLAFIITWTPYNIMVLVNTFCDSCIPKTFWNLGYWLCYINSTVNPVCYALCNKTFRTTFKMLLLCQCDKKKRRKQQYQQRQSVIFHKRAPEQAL
T3 sequence (P23975 whole entry): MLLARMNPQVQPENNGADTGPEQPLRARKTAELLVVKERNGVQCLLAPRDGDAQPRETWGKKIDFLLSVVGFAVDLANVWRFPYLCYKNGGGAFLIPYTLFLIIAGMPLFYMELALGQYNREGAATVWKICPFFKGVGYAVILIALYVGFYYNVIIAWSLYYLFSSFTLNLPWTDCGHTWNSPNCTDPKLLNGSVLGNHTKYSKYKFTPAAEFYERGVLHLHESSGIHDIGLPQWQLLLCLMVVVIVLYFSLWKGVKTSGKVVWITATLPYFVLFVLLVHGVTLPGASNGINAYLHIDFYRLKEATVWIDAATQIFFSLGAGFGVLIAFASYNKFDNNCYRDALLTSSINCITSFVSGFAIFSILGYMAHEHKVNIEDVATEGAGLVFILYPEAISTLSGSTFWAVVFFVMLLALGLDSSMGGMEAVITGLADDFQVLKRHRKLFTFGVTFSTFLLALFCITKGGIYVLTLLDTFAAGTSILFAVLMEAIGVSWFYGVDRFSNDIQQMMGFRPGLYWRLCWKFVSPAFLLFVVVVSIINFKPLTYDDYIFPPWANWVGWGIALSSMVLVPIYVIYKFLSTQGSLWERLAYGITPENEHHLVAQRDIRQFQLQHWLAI
Sequence of CamK1δ (Q8IU85 whole entry): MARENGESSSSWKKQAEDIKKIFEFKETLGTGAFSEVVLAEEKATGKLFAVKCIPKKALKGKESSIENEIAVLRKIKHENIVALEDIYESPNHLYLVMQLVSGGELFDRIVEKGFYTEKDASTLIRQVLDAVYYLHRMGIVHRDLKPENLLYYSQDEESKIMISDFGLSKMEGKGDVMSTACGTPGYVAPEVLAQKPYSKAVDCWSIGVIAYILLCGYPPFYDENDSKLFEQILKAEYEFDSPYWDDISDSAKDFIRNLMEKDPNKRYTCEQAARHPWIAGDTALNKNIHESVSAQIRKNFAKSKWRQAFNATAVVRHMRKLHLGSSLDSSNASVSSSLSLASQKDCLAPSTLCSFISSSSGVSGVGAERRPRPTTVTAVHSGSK
T6 sequence (Q01959 whole entry): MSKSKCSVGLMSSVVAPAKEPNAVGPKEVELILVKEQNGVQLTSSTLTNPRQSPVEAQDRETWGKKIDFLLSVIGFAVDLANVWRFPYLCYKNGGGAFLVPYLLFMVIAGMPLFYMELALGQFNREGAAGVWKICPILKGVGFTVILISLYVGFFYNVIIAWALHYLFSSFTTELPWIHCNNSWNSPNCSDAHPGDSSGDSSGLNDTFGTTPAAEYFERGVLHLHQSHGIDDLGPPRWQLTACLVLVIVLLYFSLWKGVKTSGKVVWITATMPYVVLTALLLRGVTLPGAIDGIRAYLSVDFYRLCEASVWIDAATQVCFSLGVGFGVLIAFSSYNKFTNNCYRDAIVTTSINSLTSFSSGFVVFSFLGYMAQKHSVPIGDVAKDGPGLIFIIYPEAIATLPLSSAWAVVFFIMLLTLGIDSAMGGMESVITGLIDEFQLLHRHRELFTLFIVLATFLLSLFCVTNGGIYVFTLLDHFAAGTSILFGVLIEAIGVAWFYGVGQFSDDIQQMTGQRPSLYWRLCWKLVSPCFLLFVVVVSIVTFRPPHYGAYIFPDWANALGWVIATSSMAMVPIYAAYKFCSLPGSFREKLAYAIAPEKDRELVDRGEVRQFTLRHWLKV

CCCCCCCCCCC[C@H]1CCC[C@H](C)N1 (relative stereo) [SPI-001, trans-2-methyl 6-n-undecylpiperidine]
SPI-001 levels in brain [1]: increased significantly | SPI-001 levels in plasma [1]: increased significantly | time SPI-001 levels were maintained in brain [1]: approximately 24 hours | time SPI-001 levels were maintained in plasma [1]: approximately 24 hours | Aβ peptide levels (Aβ peptide): significantly reduced | solubility (Solubility of SPI-001; dimethyl sulfoxide (DMSO), read-out: solubility in dimethyl sulfoxide (DMSO)): 100 mg/mL (≈ 395 mM) | solubility (Solubility of SPI-001; ethanol, read-out: solubility in ethanol): 100 mg/mL (≈ 395 mM) | solubility in water (Solubility of SPI-001; water): slightly soluble | inhibition [2]: ~90% | effect on Pl3 kinase (Pl3 kinase): inhibiting | behavior in the Morris Water Maze (APP transgenic mice [3]): improvement in behavior | brain Aβ1-42 peptide levels (Aβ1-42 peptide [4]; single 10 mg/kg oral in 25% PEG 400, 4 hr): decreased | plasma Aβ1-42 peptide levels (Aβ1-42 peptide [4]; single 10 mg/kg oral, 4 hr): increased | brain Aβ1-42 peptide levels (Aβ1-42 peptide [4]; single 10 mg/kg oral, 24 hours): continued to decrease | plasma Aβ1-42 peptide levels (Aβ1-42 peptide [4]; single 10 mg/kg oral, 24 hours): continued to increase | brain Aβ1-42 peptide levels (Aβ1-42 peptide [4]; single 10 mg/kg oral, 48 hours): returned to control levels | plasma Aβ1-42 peptide levels (Aβ1-42 peptide [4]; single 10 mg/kg oral, 48 hours): returned to control levels | brain Aβ1-42 peptide levels (Aβ1-42 peptide [4]; single 10 mg/kg oral, 7 days): returned to control levels | plasma Aβ1-42 peptide levels (Aβ1-42 peptide [4]; single 10 mg/kg oral, 7 days): returned to control levels | course of body weight changes (C57BL/6 mice; [15]): stopped by 14 days and reversed | gross behavioral deficits (C57BL/6 mice; [15]): no gross behavioral deficits | histological abnormalities in the tissues examined (C57BL/6 mice; [15]): no histological abnormalities | body weight over the 14 days (C57BL/6 mice; 400 mg/kg in 25% PEG 400 for 14 days, 25% PEG animals showed a similar profile): slight decrease in body weight | gross behavioral deficits upon visual inspection (daily) (C57BL/6 mice; [16]): no gross behavioral deficits | histological analysis of tissues (brain, liver, kidney, heart, intestine, lungs) (C57BL/6 mice; [16]): did not show any abnormal structures | brain Aβ1-42 peptide levels (Aβ1-42 peptide [5]; compared to control animals given 25% PEG only): decreased | plasma Aβ1-42 peptide levels (Aβ1-42 peptide [5]; compared to control levels): increased | inhibition [6]: ~90% | brain Aβ1-40 peptide levels (Aβ1-40 peptide [7]): same levels of decrease in the brain | plasma Aβ1-40 peptide levels (Aβ1-40 peptide [7]): increase in the plasma | inhibition [8]: ~90% | effect on MSK1 (MSK1): inhibits | inhibition [9]: ~90% | inhibition [10]: ~90% | brain Aβ1-42 peptide levels (Aβ1-42 peptide [11]; 4 hr): decreased | plasma Aβ1-42 peptide levels (Aβ1-42 peptide [11]; 4 hr): increased | brain Aβ1-42 peptide levels (Aβ1-42 peptide [11]; 24 hours): continued to decrease | plasma Aβ1-42 peptide levels (Aβ1-42 peptide [11]; 24 hours): continued to increase | brain Aβ1-42 peptide levels (Aβ1-42 peptide [11]; 48 hours): returned to control levels | plasma Aβ1-42 peptide levels (Aβ1-42 peptide [11]; 48 hours): returned to control levels | brain Aβ1-42 peptide levels (Aβ1-42 peptide [11]; 7 days): returned to control levels | plasma Aβ1-42 peptide levels (Aβ1-42 peptide [11]; 7 days): returned to control levels | effect on CamK1δ (CamK1δ): inhibits | systemic pathological features (liver, kidney, heart, lungs, intestine) (APP transgenic mice [12]): did not show any signs of systemic pathological features | effect on MAPKAPK2 pathways (MAPKAPK2 pathways): activating | brain Aβ1-40 peptide levels (Aβ1-40 peptide [13]): same levels of decrease in the brain | plasma Aβ1-40 peptide levels (Aβ1-40 peptide [13]): increase in the plasma | amyloid load (amyloid load): significantly reduced | inhibition [14]: ~90% | inhibition of Na+ channels (Na+ channels): ~90%
